# Experiments:
# SIRT4 = target: T1, SIRT4 (Homo sapiens, UniProt Q9Y6E7); assay: Sirtuin activity with fluorogenic lysyl substrates; format: biochemical; details: 50 μM substrate, 500 μM NAD^+
# T1 construct: purchased BPS Bioscience 50015
# Procedure, shortened: (§1)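 Deacylase activity was measured at 37 °C by the SIRT1 fluorometric kit method. SIRT1 and its Ac-Arg-His-Lys-Lys(Ac)-AMC substrate were swapped for other human recombinant enzymes and other acylated lysyl-AMC substrates such as Ac-Lys(Succ.)-AMC.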
# SIRT2 = target: T2, SIRT2 (Homo sapiens, UniProt Q8IXJ6); assay: Sirtuin activity with fluorogenic lysyl substrates; format: biochemical; details: 50 μM substrate, 500 μM NAD^+
# T2 sequence (Q8IXJ6 1-389): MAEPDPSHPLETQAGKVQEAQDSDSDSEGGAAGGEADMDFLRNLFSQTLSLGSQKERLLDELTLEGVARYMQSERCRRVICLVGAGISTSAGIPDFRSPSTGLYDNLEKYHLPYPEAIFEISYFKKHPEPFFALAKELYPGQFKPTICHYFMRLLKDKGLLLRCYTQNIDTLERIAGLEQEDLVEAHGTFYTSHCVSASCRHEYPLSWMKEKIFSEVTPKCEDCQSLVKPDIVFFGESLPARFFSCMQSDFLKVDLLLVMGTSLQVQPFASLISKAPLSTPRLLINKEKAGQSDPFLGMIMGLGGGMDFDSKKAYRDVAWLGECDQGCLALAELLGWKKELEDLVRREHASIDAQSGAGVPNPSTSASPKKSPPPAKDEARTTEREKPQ
# Procedure, shortened: as §1
# HDAC4 = assay: HDAC activity with fluorogenic lysyl substrates; format: biochemical, human; details: 50 μM substrate
# Method: The Ac-Lys(Succ.)-AMC substrate was tested for activity with recombinant preparations of human HDACs 1-11, SIRTs 1-4, 6 and 7, a complex of HDAC3 with a fragment of the activating protein NCOR1 and with HeLa nuclear extract, a rich source of active HDACs in their native multiprotein complexes.
# Enzyme and extract catalog products obtained from ENZO Life Sciences included: HDAC1 (Cat. # BML-SE456), HDAC2 (Cat. # BML-SE500), HDAC3 (Cat. # BML-SE507), HDAC3/NCOR1 Complex (Cat. # BML-SE515), HDAC6 (Cat. # BML-SE508), HDAC8 (Cat. # BML-SE145), HDAC10 (Cat. # BML-SE559), HDAC11 (Cat. # BML-SE560), SIRT1 (Cat. # BML-SE239), SIRT2 (Cat. # BML-SE251), SIRT3 (Cat. # BML-SE270), SIRT5 (Cat. # BML-SE555), HeLa Nuclear Extract (Cat. # BML-KI140), Trypsin (“Fluor de Lys Developer”, 80 mg/ml bovine trypsin in 1 mM HCl, Cat. # BML-KI105 or “Fluor de Lys Developer II”, 80 mg/ml bovine trypsin in 1 mM HCl, Cat. # BML-KI176). […] Enzymes obtained from BPS Bioscience, San Diego, Calif. included: human recombinants SIRT4 (Cat. #50015), SIRT6 (Cat. #50017), SIRT7 (Cat. #50018). […]
# HDAC6 = target: T3, HDAC6 (Homo sapiens, UniProt Q9UBN7); assay: HDAC activity with fluorogenic lysyl substrates; format: biochemical; details: 50 μM substrate
# T3 construct: purchased ENZO Life Sciences BML-SE508
# T3 sequence (Q9UBN7 whole entry): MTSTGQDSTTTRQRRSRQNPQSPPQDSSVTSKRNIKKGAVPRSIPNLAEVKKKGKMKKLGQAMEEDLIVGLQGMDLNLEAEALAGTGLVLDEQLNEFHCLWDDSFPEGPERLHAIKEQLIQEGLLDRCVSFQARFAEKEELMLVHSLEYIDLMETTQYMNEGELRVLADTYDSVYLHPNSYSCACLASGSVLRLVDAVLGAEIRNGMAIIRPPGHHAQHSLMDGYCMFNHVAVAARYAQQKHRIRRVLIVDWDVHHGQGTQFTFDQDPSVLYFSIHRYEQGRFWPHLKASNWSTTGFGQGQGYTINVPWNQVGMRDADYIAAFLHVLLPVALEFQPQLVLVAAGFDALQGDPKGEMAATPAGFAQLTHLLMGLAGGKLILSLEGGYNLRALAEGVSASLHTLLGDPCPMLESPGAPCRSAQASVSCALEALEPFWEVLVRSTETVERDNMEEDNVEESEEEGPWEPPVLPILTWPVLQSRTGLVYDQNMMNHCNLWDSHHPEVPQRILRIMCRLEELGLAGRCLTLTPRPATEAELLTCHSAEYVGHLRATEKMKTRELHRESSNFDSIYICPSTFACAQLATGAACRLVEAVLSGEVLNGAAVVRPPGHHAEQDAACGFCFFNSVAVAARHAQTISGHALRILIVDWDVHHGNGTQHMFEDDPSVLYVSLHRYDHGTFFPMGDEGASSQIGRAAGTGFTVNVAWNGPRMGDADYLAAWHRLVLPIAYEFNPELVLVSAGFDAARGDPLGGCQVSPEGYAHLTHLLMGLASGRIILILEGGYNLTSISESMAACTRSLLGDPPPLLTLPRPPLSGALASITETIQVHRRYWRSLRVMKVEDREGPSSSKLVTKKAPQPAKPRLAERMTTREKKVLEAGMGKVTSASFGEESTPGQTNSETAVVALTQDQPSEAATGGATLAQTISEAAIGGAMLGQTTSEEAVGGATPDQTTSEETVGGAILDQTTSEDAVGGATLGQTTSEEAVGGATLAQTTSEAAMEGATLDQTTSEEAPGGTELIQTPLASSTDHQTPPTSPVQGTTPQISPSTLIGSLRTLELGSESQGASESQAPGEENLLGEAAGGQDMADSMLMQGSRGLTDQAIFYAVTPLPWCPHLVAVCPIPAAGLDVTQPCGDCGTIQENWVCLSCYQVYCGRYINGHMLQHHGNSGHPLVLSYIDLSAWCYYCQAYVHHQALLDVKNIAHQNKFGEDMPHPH
# Procedure, shortened: as §1
# HeLa cell extracts = assay: HeLa cell extract Ac-Lys(ε-succinyl)-AMC desuccinylation activity; format: biochemical, human; details: 50 μM substrate, 500 μM NAD^+, no inhibitor, 2 hr., 37° C.
# Method: Enzyme and extract catalog products obtained from ENZO Life Sciences included: HDAC1 (Cat. # BML-SE456), HDAC2 (Cat. # BML-SE500), HDAC3 (Cat. # BML-SE507), HDAC3/NCOR1 Complex (Cat. # BML-SE515), HDAC6 (Cat. # BML-SE508), HDAC8 (Cat. # BML-SE145), HDAC10 (Cat. # BML-SE559), HDAC11 (Cat. # BML-SE560), SIRT1 (Cat. # BML-SE239), SIRT2 (Cat. # BML-SE251), SIRT3 (Cat. # BML-SE270), SIRT5 (Cat. # BML-SE555), HeLa Nuclear Extract (Cat. # BML-KI140), Trypsin (“Fluor de Lys Developer”, 80 mg/ml bovine trypsin in 1 mM HCl, Cat. # BML-KI105 or “Fluor de Lys Developer II”, 80 mg/ml bovine trypsin in 1 mM HCl, Cat. # BML-KI176). […] Enzymes obtained from BPS Bioscience, San Diego, Calif. included: human recombinants SIRT4 (Cat. #50015), SIRT6 (Cat. #50017), SIRT7 (Cat. #50018). HeLa whole cell extract was obtained from HeLa S3 cells (American Type Culture Collection) grown in a medium of MEM/10% fetal bovine serum (FBS) as follows: 1) 9×10^6 cells were suspended by trypsinization, followed by a phosphate buffered saline (PBS) rinse and addition of MEM/10% FBS (1.5 mL) to eliminate trypsin before transfer to a 15 mL conical tube; 2) cells were sedimented by a low speed centrifugation, gently resuspended in PBS and sedimented again and supernatant removed; 3) lysis was induced by resuspension in 0.8 mL 50 mM Tris/HCl, pH 8.0 with the non-denaturing detergent NP-40 (0.5%), placement on ice and brief vortexing every 5 min. for 30 min.; 4) 100 μl of a concentrated salt solution in the same buffer was added in order to bring the final buffer composition to 50 mM Tris/C1, pH 8.0, 137 mM NaCl, 2.7 mM KCl, 1 mM MgCl2, 0.5% NP-40; 5) particulate matter was cleared by centrifugation and the cleared lysate supernatant transferred to a 1.5 mL Eppendorf tube and stored on ice until use in activity assays.
# Assays were performed at 37° C., according to the manufacturer's instructions for the “SIRT1 Fluorometric Drug Discovery Kit” from Enzo Life Sciences (ELS) (Cat. # BML-AK555), with exceptions described as follows. […]
# T1 sequence (Q9Y6E7 29-314): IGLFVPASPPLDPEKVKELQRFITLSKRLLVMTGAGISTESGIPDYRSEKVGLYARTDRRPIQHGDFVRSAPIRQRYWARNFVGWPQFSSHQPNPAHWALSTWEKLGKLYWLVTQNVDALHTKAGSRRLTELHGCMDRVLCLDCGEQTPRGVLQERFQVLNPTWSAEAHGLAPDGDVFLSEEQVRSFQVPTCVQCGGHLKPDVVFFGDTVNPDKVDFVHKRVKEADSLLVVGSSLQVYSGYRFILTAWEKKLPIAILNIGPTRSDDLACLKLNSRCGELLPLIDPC
smiles,measurement,setting,value
"CC(=O)NCCCCC(NC(C)=O)C(=O)Nc1ccc2c(C)cc(=O)oc2c1 (stereo not drawn) [Ac-Lys(Ac.)-AMC, Ac-Lys(ε-acetyl)-AMC, reference compound]",Activity (pmol/min/μg),SIRT4,Undetectable
same,Activity,SIRT2,0.016 pmol/min/µg
same,Activity (pmol/min/μg),HDAC4,Undetectable
same,Activity,HDAC6,1.0 pmol/min/µg
"CC(=O)N[C@@H](CCCCNC(=O)CCC(=O)O)C(=O)Nc1ccc2c(C)cc(=O)oc2c1 [Compound 1, N—(N^α-acetyl-L-Lysine(N^ε-succinyl))-AMC]",Activity (pmol/min/μg),SIRT4,Undetectable
same,Activity (pmol/min/μg),SIRT2,Undetectable
same,Activity (pmol/min/μg),HDAC4,Undetectable
same,Maximum fluorescence increase over 0 hr./NL,HeLa cell extracts,"22,000"
same,Activity (pmol/min/μg),HDAC6,Undetectable

# From US10920265B2, “Compounds and methods for detection of enzymes that remove methyl succinyl groups from epsilon-amino lysine moieties” (Enzo Life Sciences, Inc., priority 2011, dated 2021)
